Experiment in all cases: DTP human tumour cell line panel, 48 h
Experiment [1] concerns KM20L2 colon.
In experiment [2] the test system is DMS 273 small cell lung.
Experiment [3] relates to XF 498 CNS.
Experiment [4] relates to MDA-N.
In experiment [5] the test system is HOP-18 NSCLC.
Experiment [6] has as its system DMS 114 small cell lung.
Experiment [7] deals with DLD-1 colon.
For experiment [8], the system named is BT-549 breast.
In experiment [9] the test system is LXFL 529 NSCLC.

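Grown in 96-well plates, cells were treated for 48 hours with each compound at five concentrations. Insufficient inhibition: endpoint recorded as highest concentration tested. The concentration for 50% growth inhibition is given as GI50. At the TGI there is no net growth.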

TGI and GI50 data for 18 compounds are collected here from PubChem BioAssay (NCI).

For the compound `CC1OC(CC(=O)O)Cc2c1c(O)c1c(O)cc(-c3cc(=O)c4c(=O)c5c(c(=O)c=4c3=O)CC(CC(=O)O)OC5C)c(O)c1c2O` (stereo unspecified), the TGI in experiment [1] was over 68 µM; in experiment [2] it was 47 µM; in experiment [3], 34.5 µM; in [5] it was 45.7 µM; in [6] it was 40 µM; in experiment [7], 26.4 µM. This compound also gave a TGI in experiment [9] of 22.8 µM. For the same compound, the GI50 is 29.1 µM in experiment [4] and 52.7 µM in experiment [8].

Regarding `O=S1(=O)c2cc(S(=O)(=O)n3ccnc3)ccc2NC2=NCCCN21`, the TGI in experiment [1] is 41.7 µM; in experiment [5], over 100 µM; in experiment [6], 49.6 µM; in experiment [7], over 100 µM; in experiment [9] it was over 100 µM.

For `Cc1ccc(/C=N/NS(=O)(=O)c2ccccc2)cc1C`, the TGI in experiment [1], in experiment [2], in [3], in experiment [5], in experiment [6] and in [7] was over 100 µM throughout. This compound also yielded a TGI in [9] of over 100 µM.

Regarding `CN(C)CCN(C)C(=O)c1cccc2cccc(C(=O)O)c12`, the TGI in experiment [1], in [2], in experiment [3], in experiment [5], in [6] and in [7] was over 100 µM throughout. This compound had a TGI in experiment [9] of over 100 µM.

Consider `Cc1[nH]c2ccccc2c1C1=NO/C(=N\O)C(c2c(C)[nH]c3ccccc23)C1` (stereo unspecified), for which the TGI in experiment [1] was 50.5 µM; in experiment [2], over 100 µM; in experiment [3] it was over 100 µM; in experiment [5] it was over 100 µM; in experiment [6], over 100 µM; in [7] it was over 100 µM. In experiment [9], this compound displayed a TGI of over 100 µM.

As for `CCC[CH2][Sn]1([CH2]CCC)[O]CC[S]1`, the GI50 in [1] was 1.41 µM; in [2], 1.13 µM; in experiment [3] it was 0.476 µM; in experiment [5], 0.717 µM; in experiment [6], 0.272 µM; in [7] it was 0.47 µM. Besides, the GI50 in [9] was 0.134 µM. Besides, the TGI in experiment [1] is 2.75 µM; in [2], 3.56 µM; in experiment [3] it was 1.02 µM; in experiment [5] it was 1.89 µM; in [6], 1.26 µM; in [7] it was 1.73 µM. In [9], this compound showed a TGI of 0.579 µM.

On to `O=C(O)CCSC(=O)Nc1cccc2ccccc12`, for which the TGI in experiment [1], in experiment [2], in [3], in experiment [5], in experiment [6] and in experiment [7] was over 100 µM throughout. In experiment [9], this compound gave a TGI of over 100 µM.

As to `CC(=O)NCc1c(C(N)=O)ncn1Cc1ccccc1`, the TGI in experiment [1], in [2], in experiment [3], in experiment [5], in experiment [6] and in experiment [9] was over 100 µM throughout.

Take `COc1cc(/C=C2\NC(=O)C3Cc4c(OC)c(C)c(OC)c(OC)c4C2N3C)c(OC)c(C)c1OC` (stereo unspecified): the TGI in [1], in experiment [2], in experiment [3], in experiment [5], in experiment [6] and in experiment [7] was over 100 µM each time. In addition, the total growth inhibition concentration (TGI) in [9] was over 100 µM.

For the compound `O=c1c(C(c2ccc([N+](=O)[O-])cc2)c2c(O)c3ccccc3n(-c3ccccc3)c2=O)c(O)c2ccccc2n1-c1ccccc1`, the TGI in experiment [1] was over 100 µM; in experiment [2] it was over 100 µM; in experiment [3] it was 58.4 µM; in [5], 9.08 µM; in [6], 73.5 µM; in experiment [7], over 100 µM. Moreover, in experiment [9], the TGI came out at 54.7 µM.

As to `COc1ccccc1NC(=O)CC(=O)n1nc(C)c(N=Nc2ccccc2Cl)c1C`, the TGI in experiment [1] was over 100 µM; in [2], over 100 µM; in [3], over 100 µM; in [4] it was over 31.6 µM; in [5], over 100 µM; in [6], over 100 µM. Also, the TGI in experiment [7], in experiment [8] and in experiment [9] was over 100 µM each time.

`C[C@]12CCc3nonc3C1CC[C@@H]1C2CC[C@@]2(C)C1CC[C@@H]2O` (stereo partly specified): the TGI in experiment [1], in experiment [2], in experiment [3], in experiment [5], in experiment [6] and in experiment [7] was over 100 µM each time. In [9], this compound yielded a TGI of over 100 µM.

Take `COc1ccc(C[C@]23CCC(=O)N2CCc2cc(OC)c(O)cc23)cc1O`: the TGI in [1], in experiment [2], in experiment [5], in experiment [6] and in experiment [9] was over 100 µM in each case.

For `C1C[OH+]CCNCC[OH+]CC[OH+]CCN1.N.[Cl-].[Pt+4]`, the GI50 in experiment [1] was 22.8 µM; in experiment [2], 28.7 µM; in experiment [5] it was 37.5 µM; in experiment [7] it was 46.1 µM; in experiment [9] it was over 100 µM. The TGI in [1], in experiment [2], in [5], in [7] and in experiment [9] was over 100 µM in each case.

Turning to `Cc1cc2c(=O)c(C)n[nH]c2c(C#N)c1C`, the TGI in experiment [1], in [2], in experiment [3], in experiment [5], in [7] and in [9] was over 100 µM throughout.

For `CCCCCCCC(=O)OCC1OC(n2cc(F)c(=O)[nH]c2=O)C(N)C(O)C1O` (stereo unspecified), the TGI in experiment [1], in [2], in experiment [5], in [6], in experiment [7] and in experiment [9] was over 100 µM in each case.

Consider `COc1ccc([Se][Se]c2ccc(OC)cc2OC)c(OC)c1`, for which the TGI came to 19.7 µM in [2]; 3.84 µM in experiment [3]; 4.72 µM in experiment [5]; 4.82 µM in experiment [6]; 8.72 µM in experiment [7]; 4.64 µM in experiment [9].

As to `COC(=O)/C(=N\NC(N)=O)C(C#N)c1ccccc1` (stereo unspecified), the TGI in experiment [1], in experiment [3], in experiment [5], in experiment [6], in experiment [7] and in experiment [9] was over 100 µM in each case.

The TGI is the concentration at which net growth stops. A lower TGI goes with greater sensitivity of the cells. As a reminder, the GI50 is the concentration giving 50% growth inhibition.
